In article PMC10817917, “Alkyl deoxyglycoside-polymyxin combinations against critical priority carbapenem-resistant gram-negative bacteria” (Scientific Reports, 2024):
Values after ≈ are worked out from the molar mass of the structure shown. Read-outs that look alike come from different tables or passages of the source.

Tests used:
E. coli ATCC 25922 = test: Broth microdilution MIC/MBC, glycosides with or without polymyxins; assay type: cell-based, Escherichia coli
K. pneumoniae CQ4921 = test: as above; assay type: cell-based, Klebsiella pneumoniae
E. cloacae CQ1941 = test: as above; assay type: cell-based
K. pneumoniae CQ1942 = test: Broth microdilution MIC, glycosides with or without polymyxins; assay type: cell-based, Klebsiella pneumoniae
K. pneumoniae CQ1947 = test: as above; assay type: cell-based, Klebsiella pneumoniae
A. baumannii CQ4322 = test: Broth microdilution MIC/MBC, glycosides with or without polymyxins; assay type: cell-based, Acinetobacter baumannii; conditions: for RIS (susceptibility category) / MIC (antibiotic susceptibility profile): antibiotic alone
P. aeruginosa CQ4924 = test: Broth microdilution MIC, glycosides with or without polymyxins; assay type: cell-based, Pseudomonas aeruginosa; conditions: for RIS (susceptibility category) / MIC (antibiotic susceptibility profile): antibiotic alone
E. coli NCTC 13846 = test: Broth microdilution MIC/MBC, glycosides with or without polymyxins; assay type: cell-based, Escherichia coli; conditions: antibiotic alone; strain B
Caco-2 cells = test: Resazurin cell viability assay (cytotoxicity); assay type: cell-based, human; conditions: tested alone (no polymyxin adjuvant); 72 h
Experimental: (§1) Cytotoxicity of each compound alone or in combination with different polymyxin concentrations was evaluated through the resazurin cell viability assay[49] in human embryonic HEK-293T cells, as well as in human colon adenocarcinoma Caco-2 cells, after a 72-h long incubation period.
(§2) HEK-293T and Caco-2 cells were grown in RPMI 1640 medium (VWR) supplemented with 10% FBS (Biowest), 1% PenStrep (Sigma Aldrich), and 1% glutamine (Biowest) in a humidified incubator at 37 °C with a 5% CO2 atmosphere. Twice a week, the medium was aspirated, the cells were washed with DPBS (VWR), trypsinized with trypsin–EDTA solution (Biowest), and resuspended in fresh culture medium. The dose-dependent effects of each glycoside or glycoside-polymyxin combination were evaluated by the resazurin cell viability assay. Polymyxins (colistin sulfate and PMB sulfate for microbiological assays, European Pharmacopoeia Reference Standards, Sigma-Aldrich) were firstly dissolved in sterilized Mili-Q water to a stock concentration of 1 mg/mL, while glycosides were dissolved in DMSO to a stock concentration of 30 mM. 1.5 × 10^4 cells/well in 96.5 µL of medium were seeded onto 96-well plates and incubated at 37 °C for 24 h. For each compound, ten stock dilutions (with concentrations from 750 to 75 µM) were prepared in fresh medium immediately prior to incubation. 16 µL of each dilution were added to each well so that the final glycoside concentrations ranged from 100 to 10 µM in each row in a final assay volume of 120 µL. In addition, the previously prepared polymyxin stock solutions were diluted in fresh medium, affording new stocks of 8, 4, and 2 µg/mL. The same volume (7.5 µL/well) of PMB or colistin was then added to each row to achieve a final polymyxin concentration of 0.5, 0.25, and 0.125 µg/mL, respectively, regardless of the glycoside concentration. In assays without polymyxin, the same volume (7.5 µL/well) of medium was added. In all assays, the maximum DMSO concentration was 0.33%. After a 72-h incubation at 37 °C, 12 µL of a 0.15 mg/mL resazurin (Sigma-Aldrich) in sterilized Mili-Q water were added to each well, and the plates were left incubating for another 4 h at 37 °C. Resorufin was measured at 570/600 nm, and the percentage of resazurin reduction, corresponding to the cell viability percentage, was calculated according to Eq. (1)[60]. IC50 values were obtained by best fitting the dose-dependent inhibition curves using the Prism 9® software. The results were expressed as the mean ± SD of three independent replicates, with only data from analysis with R^2 > 0.90 being considered.1 %Cellviability=Abssample-Absmediumcontrol/Abscellcontrol-Absmediumcontrol×100

HEK-293T cells = test: Resazurin cell viability assay (cytotoxicity); assay type: cell-based, human; conditions: tested alone (no polymyxin adjuvant); 72 h
Experimental: as §1, §2

HEK-293 cells = system: HEK-293 cells; design: method as in PMID 30532748; conditions: polymyxin alone; cited from earlier work
[1] = Escherichia coli, ATCC25922, antibiotic alone, strain A, read-out: MIC (antibiotic susceptibility profile)
[2] = Klebsiella pneumoniae, CQ4921, antibiotic alone, strain C, read-out: MIC (antibiotic susceptibility profile)
[3] = Enterobacter cloacae, CQ1941, antibiotic alone, strain D, read-out: MIC (antibiotic susceptibility profile)
[4] = Klebsiella pneumoniae, CQ1942, antibiotic alone, strain E, read-out: MIC (antibiotic susceptibility profile)
[5] = Klebsiella pneumoniae, CQ1947, antibiotic alone, strain F, read-out: MIC (antibiotic susceptibility profile)

CO/N=C(\C(=O)N[C@@H]1C(=O)N2C(C(=O)O)=C(COC(C)=O)CS[C@H]12)c1csc(N)n1 [Cefotaxime, reference compound]
MIC (E. coli ATCC 25922; [1]): 0.06 µg/mL (≈ 0.132 µM) | MIC (K. pneumoniae CQ4921; [2]): 2 µg/mL (≈ 4.39 µM) | RIS (susceptibility category) (K. pneumoniae CQ4921; antibiotic alone, strain C): I/R | MIC (E. cloacae CQ1941; [3]): ≥ 128 µg/mL | MIC (K. pneumoniae CQ1942; [4]): ≥ 128 µg/mL | MIC (K. pneumoniae CQ1947; [5]): ≥ 128 µg/mL | RIS (susceptibility category) (A. baumannii CQ4322; strain G): ERP | RIS (susceptibility category) (P. aeruginosa CQ4924; strain H): ERP

colistin [reference compound]
MIC (E. coli ATCC 25922; agent alone, no adjuvant (polymyxin conc. 0), strain A): 0.5 µg/mL | MICB (MIC of colistin individually) (E. coli ATCC 25922; alone): 0.5 µg/mL | MIC (antibiotic susceptibility profile) (E. coli ATCC 25922; antibiotic alone, strain A): 0.5 to 1 µg/mL | MIC (antibiotic susceptibility profile) (E. coli NCTC 13846): 4 µg/mL | MIC (K. pneumoniae CQ4921; agent alone, no adjuvant (polymyxin conc. 0), strain C): 0.5 µg/mL | MICB (MIC of colistin individually) (K. pneumoniae CQ4921; alone): 0.5 µg/mL | MIC (antibiotic susceptibility profile) (K. pneumoniae CQ4921; antibiotic alone, strain C): 0.125 to 1 µg/mL | MIC (E. cloacae CQ1941; agent alone, no adjuvant (polymyxin conc. 0), strain D): 0.5 µg/mL | MICB (MIC of colistin individually) (E. cloacae CQ1941; alone): 0.5 µg/mL | MIC (antibiotic susceptibility profile) (E. cloacae CQ1941; antibiotic alone, strain D): 0.125 to 1 µg/mL | MIC (K. pneumoniae CQ1942; agent alone, no adjuvant (polymyxin conc. 0), strain E): 0.5 µg/mL | MICB (MIC of colistin individually) (K. pneumoniae CQ1942; alone): 0.5 µg/mL | MIC (antibiotic susceptibility profile) (K. pneumoniae CQ1942; antibiotic alone, strain E): 0.125 to 1 µg/mL | MIC (K. pneumoniae CQ1947; agent alone, no adjuvant (polymyxin conc. 0), strain F): 0.5 µg/mL | MICB (MIC of colistin individually) (K. pneumoniae CQ1947; alone): 0.5 µg/mL | MIC (antibiotic susceptibility profile) (K. pneumoniae CQ1947; antibiotic alone, strain F): 0.125 to 1 µg/mL | MIC (A. baumannii CQ4322; agent alone, no adjuvant (polymyxin conc. 0), strain G): 0.5 µg/mL | MICB (MIC of colistin individually) (A. baumannii CQ4322; alone): 0.5 µg/mL | MIC (antibiotic susceptibility profile) (A. baumannii CQ4322; strain G): 0.5 to 1 µg/mL | MIC (P. aeruginosa CQ4924; agent alone, no adjuvant (polymyxin conc. 0), strain H): 1 µg/mL | MICB (MIC of colistin individually) (P. aeruginosa CQ4924; alone): 1 µg/mL | MIC (antibiotic susceptibility profile) (P. aeruginosa CQ4924; strain H): 1 to 2 µg/mL | IC50 (Caco-2 cells): > 115 µg/mL | IC50 (HEK-293T cells): > 115 µg/mL | IC50 (HEK-293 cells): > 1000 µg/mL

CC1(C)S[C@@H]2[C@H](NC(=O)[C@H](N)c3ccccc3)C(=O)N2[C@H]1C(=O)O [Ampicillin, reference compound]
MIC (E. coli ATCC 25922; [1]): 4 µg/mL (≈ 11.4 µM) | MIC (K. pneumoniae CQ4921; [2]): ≥ 128 µg/mL | MIC (E. cloacae CQ1941; [3]): ≥ 128 µg/mL | MIC (K. pneumoniae CQ1942; [4]): ≥ 128 µg/mL | MIC (K. pneumoniae CQ1947; [5]): ≥ 128 µg/mL | RIS (susceptibility category) (A. baumannii CQ4322; strain G): ERP | RIS (susceptibility category) (P. aeruginosa CQ4924; strain H): ERP

C[C@H]1[C@H](NC(=O)/C(=N\OC(C)(C)C(=O)O)c2csc(N)n2)C(=O)N1S(=O)(=O)O [Aztreonam, reference compound]
MIC (E. cloacae CQ1941; [3]): > 64 µg/mL | MIC (K. pneumoniae CQ1942; [4]): > 64 µg/mL | MIC (K. pneumoniae CQ1947; [5]): 0.25 µg/mL (≈ 0.574 µM) | RIS (susceptibility category) (A. baumannii CQ4322; strain G): ERP

C[C@@H](O)[C@H]1C(=O)N2C(C(=O)O)=C(S[C@@H]3CN[C@H](C(=O)N(C)C)C3)[C@H](C)[C@H]12 [Meropenem, reference compound]
MIC (E. coli ATCC 25922; [1]): 0.016 to 0.03 µg/mL (≈ 0.0417 to 0.0782 µM) | MIC (K. pneumoniae CQ4921; [2]): 4 µg/mL (≈ 10.4 µM) | MIC (E. cloacae CQ1941; [3]): 32 to 64 µg/mL (≈ 83.4 to 167 µM) | MIC (K. pneumoniae CQ1942; [4]): ≥ 128 µg/mL | MIC (K. pneumoniae CQ1947; [5]): 16 to 32 µg/mL (≈ 41.7 to 83.4 µM) | MIC (antibiotic susceptibility profile) (P. aeruginosa CQ4924; strain H): 16 µg/mL (≈ 41.7 µM)

NCC[C@H](O)C(=O)N[C@@H]1C[C@H](N)[C@@H](O[C@H]2O[C@H](CN)[C@@H](O)[C@H](O)[C@H]2O)[C@H](O)[C@H]1O[C@H]1O[C@H](CO)[C@@H](O)[C@H](N)[C@H]1O [Amikacin, reference compound]
MIC (E. coli ATCC 25922; [1]): 1 to 2 µg/mL (≈ 1.71 to 3.42 µM) | MIC (K. pneumoniae CQ4921; [2]): 0.5 to 2 µg/mL (≈ 0.854 to 3.42 µM) | MIC (E. cloacae CQ1941; [3]): ≥ 128 µg/mL | MIC (K. pneumoniae CQ1942; [4]): 16 µg/mL (≈ 27.3 µM) | MIC (K. pneumoniae CQ1947; [5]): 32 µg/mL (≈ 54.6 µM) | MIC (antibiotic susceptibility profile) (A. baumannii CQ4322; strain G): ≥ 128 µg/mL | MIC (antibiotic susceptibility profile) (P. aeruginosa CQ4924; strain H): 4 µg/mL (≈ 6.83 µM)

CO/N=C(\C(=O)N[C@@H]1C(=O)N2C(C(=O)[O-])=C(C[N+]3(C)CCCC3)CS[C@H]12)c1csc(N)n1 [Cefepime, reference compound]
MIC (E. coli ATCC 25922; [1]): 0.03 to 0.06 µg/mL (≈ 0.0624 to 0.125 µM) | MIC (E. cloacae CQ1941; [3]): > 64 µg/mL | MIC (K. pneumoniae CQ1942; [4]): > 64 µg/mL | MIC (K. pneumoniae CQ1947; [5]): 32 µg/mL (≈ 66.6 µM)
